In paper PMC6477540 (Journal of medicinal chemistry, 2018):

What was measured:
PEO1 cells = assay: Cell viability and synergy with cisplatin; type: cell-based; details: at 1 μM and 10 μM, 72 h
OVCAR5 cells = assay: Cell viability and synergy with cisplatin; type: cell-based; details: at 1 μM and 10 μM, 72 h

Compound | Cytotoxicity of compound alone, PEO1 (PEO1 cells) | Cytotoxicity of compound alone, OVCAR5 (OVCAR5 cells)
O=c1c2cnn(C3COC3)c2nc(SCc2cccc(F)c2)n1-c1ccccc1 [Compound 12g, 6-((3-Fluorobenzyl)thio)-1-(oxetan-3-yl)-5-phenyl-1H-pyrazolo[3,4-d]pyrimidin-4(5H)-one] | did not show cytotoxicity | did not show cytotoxicity
O=c1c2cn(C3COC3)nc2nc(SCc2cccc(F)c2)n1-c1ccccc1 [Compound 13g, 6-((3-Fluorobenzyl)thio)-2-(oxetan-3-yl)-5-phenyl-2H-pyrazolo[3,4-d]pyrimidin-4(5H)-one] | did not show cytotoxicity | did not show cytotoxicity
